Activity calls are given as the source filed them.
Experiments:
[1] = reduction of Shn3 3'UTR-driven luciferase in osteoblasts – cell-based, Clone20 osteoblasts, firefly luciferase, cherry-picked, dose response (AID 624132); format: functional;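 further: firefly luciferase luminescence from reporter carrying the Shn3 3'UTR in osteoblasts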
[2] = target: Paired box protein Pax-8 (Homo sapiens, UniProt Q06710); experiment: PAX8 transcriptional activity inhibition in RMG-I – RMG-I cells, luciferase, cherry-pick, dose response (AID 687027); format: functional, cell-based;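 further: luciferase reporter driven by Pax8 target thyroperoxidase promoter measured by SteadyGlo luminescence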
[3] = system: BJ; experiment: cells; format: functional, cell-based; settings: Homo sapiens
[4] = HPDE-C7 pancreatic duct cell viability loss – fluorescence, HTS (AID 430); format: functional, cell-based; settings: Homo sapiens
[5] = DRD fibroblast viability loss – cell-based, non-viral oncogenic, luminescence, dose response (AID 1934); format: functional; settings: Homo sapiens
[6] = loss of viability in HepG2 cells – cell-based, CellTiter-Glo, cherry-picked, cytotoxicity control for Shn3 inhibitor project, dose response (AID 624134); format: functional
[7] = general cell-killing toxicity readout – plate reader, dry powder samples, cytotoxicity control for PAX8 inhibitor project, dose response (AID 743021); format: functional, cell-based
[8] = viability loss of HPDE-C7K cells – cell-based, fluorescence, HTS, primary screen (AID 431); format: functional; settings: Homo sapiens
[9] = HEK-293T viability loss after treatment – luminescence, T-cell screen hits, cytotoxicity control for TCR NF-kB inhibitor project, dose response (AID 489026); format: functional, cell-based;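 further: cells exposed to compound about 14 hours before the viability readout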
[10] = system: BJ; experiment: BJ-TERT-LT-ST fibroblast viability loss – cell-based, RAS-independent, luminescence, dose response (AID 1935); format: functional; settings: Homo sapiens;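 further: BJ fibroblasts immortalized with TERT plus LT and ST oncogenes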
[11] = system: BJ; experiment: BJ-TERT fibroblast viability loss – cell-based, RAS-independent, luminescence, dose response (AID 1933); format: functional; settings: Homo sapiens
[12] = non-specific 3'UTR reporter inhibition in Clone20-Shn3RL – cell-based, Renilla luciferase, cherry-picked, counter-screen for Shn3 inhibitor project, dose response (AID 624133); format: functional
[13] = viability loss in human Jurkat cells – cell-based, luminescence, cytotoxicity control for P. falciparum gametocyte viability project, dose response (AID 1117277); format: functional;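 further: potency reflects loss of cellular ATP meaning fewer viable cells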
[14] = viability inhibitors of stage V gametocytes – luminescence, dose response (AID 1117278); format: functional, cell-based;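 further: gametocytes exposed to compound for 24 hours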
[15] = cells
[16] = target: T1, Oxysterols receptor LXR-beta (Homo sapiens, UniProt P55055); format: functional, cell-based;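 further: Cell-based luminescence dose-response assay of agonist activity at LXR, run as a confirmatory counterscreen to a daf-12 agonist screen; agonist potency from rising luciferase signal of a Gal4-LXR reporter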
T1 sequence (P55055 whole entry): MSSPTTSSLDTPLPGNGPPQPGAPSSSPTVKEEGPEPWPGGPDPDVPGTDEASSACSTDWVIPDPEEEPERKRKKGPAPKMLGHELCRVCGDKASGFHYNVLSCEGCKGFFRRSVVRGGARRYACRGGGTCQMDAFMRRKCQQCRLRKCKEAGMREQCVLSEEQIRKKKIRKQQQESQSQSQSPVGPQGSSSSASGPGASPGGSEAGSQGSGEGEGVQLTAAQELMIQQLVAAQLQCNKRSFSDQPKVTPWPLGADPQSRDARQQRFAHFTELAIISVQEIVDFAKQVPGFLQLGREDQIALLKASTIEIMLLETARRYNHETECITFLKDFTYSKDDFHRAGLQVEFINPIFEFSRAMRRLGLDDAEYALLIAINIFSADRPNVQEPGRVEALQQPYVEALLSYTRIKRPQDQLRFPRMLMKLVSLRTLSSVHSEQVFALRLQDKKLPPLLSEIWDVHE

[17] = toxicity to human hepatoma HepG2 cells – cell-based, cherry-picked samples, cytotoxicity control, dose response (AID 1159577); format: functional
[18] = toxicity to human HepG2 hepatoma cells – cell-based, plate reader, dry powder samples, cytotoxicity control, dose response (AID 1159569); format: functional;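 further: inhibitor potency with signal falling toward the positive control level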
[19] = growth inhibition of yeast DHODH-expressing 3D7 parasites – SYBR Green, dry powder samples, dose response (AID 1159570); format: functional, cell-based;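 further: parasite growth measured after 72 hours of compound exposure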
[20] = Dd2 malaria parasite growth inhibition potency – SYBR Green, dry powder samples, dose response (AID 1159566); format: functional, cell-based;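 further: potency for growth inhibition with lower SYBR green DNA signal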
[21] = P. falciparum Dd2 growth inhibitors, dose response, SYBR Green, cherry-picked samples (AID 1159567); format: functional, cell-based
[22] = growth inhibition of PfATP4-mutant resistant parasites – NITD609-resistant line, SYBR Green, dry powder, dose response (AID 1159571); format: functional, cell-based;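 further: parasites synchronized at ring stage by sorbitol before testing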
[23] = general mammalian cell viability loss – inhibitor set, cherry-pick, set 2, cytotoxicity control for miR-122 modulator project, dose response (AID 720697); format: functional, cell-based
[24] = target: Beta-galactosidase (Escherichia coli, UniProt Q8VNN2); experiment: detection-enzyme interference by beta-gal modulators – biochemical, E. coli enzyme, set 3, artefact control for CCR6 antagonist project, dose response (AID 504712); format: functional
[25] = system: HEK293; experiment: EBV LMP1 TES2 canonical NF-kB signalling blockers – cell-based, HEK293, luciferase, cherry-pick, dose response (AID 588343); format: functional; settings: Homo sapiens
[26] = target: T1, Oxysterols receptor LXR-beta; experiment: LXR agonists, Gal4 luciferase reporter, dose response, counter-screen for ssDAF-12 agonist project, cell-based, luminescence, HEK293, S. stercoralis campaign (AID 720737); format: functional; settings: read-out: IC50 (the source's name)
[27] = Luminescence-based cell-based high throughput dose response assay to identify activators of the DAF-12 from the parasite S. stercoralis (ssDAF-12).; format: functional
[28] = inhibition of ARNT PAS-B/TACC3 complex formation – biochemical, AlphaScreen, cherry-picked samples, confirmation (AID 651703); format: functional, Homo sapiens;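 further: His-tagged ARNT PAS-B domain paired with GST-TACC3 E629A dimer coactivator fragment; potency of inhibitors that break up the complex and lower AlphaScreen signal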
[29] = cells; format: functional, cell-based
[30] = target: T2, Nuclear receptor subfamily 0 group B member 1 (Homo sapiens, UniProt P51843); format: functional, cell-based;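 further: HEK293T cells transfected with SF-1 and DAX-1 plus StAR promoter luciferase reporter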
T2 sequence (P51843 whole entry): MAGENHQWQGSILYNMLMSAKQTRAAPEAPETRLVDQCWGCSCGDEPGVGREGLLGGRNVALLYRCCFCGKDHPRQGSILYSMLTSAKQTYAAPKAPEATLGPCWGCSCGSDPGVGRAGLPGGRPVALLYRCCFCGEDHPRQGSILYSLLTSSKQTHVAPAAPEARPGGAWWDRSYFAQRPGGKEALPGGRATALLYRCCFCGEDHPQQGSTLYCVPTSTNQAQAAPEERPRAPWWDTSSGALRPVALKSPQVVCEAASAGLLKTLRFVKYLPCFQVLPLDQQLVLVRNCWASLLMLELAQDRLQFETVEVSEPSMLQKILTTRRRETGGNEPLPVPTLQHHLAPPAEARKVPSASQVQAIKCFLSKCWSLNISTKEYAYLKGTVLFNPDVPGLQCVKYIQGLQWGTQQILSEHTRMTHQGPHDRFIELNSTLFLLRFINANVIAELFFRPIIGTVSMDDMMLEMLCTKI

[31] = A549 cell cytotoxicity, dose response, cytotoxicity control, plate reader, cherry-pick, antagonist series (AID 743412); format: functional, cell-based
[32] = blockers of bursicon-stimulated LGR2 cAMP reporter – cell-based, HEK293, CRE-luciferase reporter, cherry pick, set 2, dose response (AID 743343); format: functional;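 further: transfected cells were stimulated with diluted bursicon conditioned medium after compound addition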

Paired box protein Pax-8, sequence (Q06710 whole entry): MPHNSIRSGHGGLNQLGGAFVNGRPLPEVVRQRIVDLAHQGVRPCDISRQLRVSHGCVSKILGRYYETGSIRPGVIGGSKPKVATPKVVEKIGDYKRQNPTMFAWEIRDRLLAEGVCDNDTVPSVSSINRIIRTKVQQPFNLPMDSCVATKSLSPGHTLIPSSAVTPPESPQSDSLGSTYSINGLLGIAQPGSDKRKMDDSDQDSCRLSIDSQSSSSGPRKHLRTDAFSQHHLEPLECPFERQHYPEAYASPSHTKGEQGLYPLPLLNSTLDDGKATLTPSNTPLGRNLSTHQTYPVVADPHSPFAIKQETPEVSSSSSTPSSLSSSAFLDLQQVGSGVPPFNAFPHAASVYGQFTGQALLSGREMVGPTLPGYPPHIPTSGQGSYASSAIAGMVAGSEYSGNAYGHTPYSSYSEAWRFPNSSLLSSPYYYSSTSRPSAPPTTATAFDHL
Beta-galactosidase, sequence (Q8VNN2 whole entry): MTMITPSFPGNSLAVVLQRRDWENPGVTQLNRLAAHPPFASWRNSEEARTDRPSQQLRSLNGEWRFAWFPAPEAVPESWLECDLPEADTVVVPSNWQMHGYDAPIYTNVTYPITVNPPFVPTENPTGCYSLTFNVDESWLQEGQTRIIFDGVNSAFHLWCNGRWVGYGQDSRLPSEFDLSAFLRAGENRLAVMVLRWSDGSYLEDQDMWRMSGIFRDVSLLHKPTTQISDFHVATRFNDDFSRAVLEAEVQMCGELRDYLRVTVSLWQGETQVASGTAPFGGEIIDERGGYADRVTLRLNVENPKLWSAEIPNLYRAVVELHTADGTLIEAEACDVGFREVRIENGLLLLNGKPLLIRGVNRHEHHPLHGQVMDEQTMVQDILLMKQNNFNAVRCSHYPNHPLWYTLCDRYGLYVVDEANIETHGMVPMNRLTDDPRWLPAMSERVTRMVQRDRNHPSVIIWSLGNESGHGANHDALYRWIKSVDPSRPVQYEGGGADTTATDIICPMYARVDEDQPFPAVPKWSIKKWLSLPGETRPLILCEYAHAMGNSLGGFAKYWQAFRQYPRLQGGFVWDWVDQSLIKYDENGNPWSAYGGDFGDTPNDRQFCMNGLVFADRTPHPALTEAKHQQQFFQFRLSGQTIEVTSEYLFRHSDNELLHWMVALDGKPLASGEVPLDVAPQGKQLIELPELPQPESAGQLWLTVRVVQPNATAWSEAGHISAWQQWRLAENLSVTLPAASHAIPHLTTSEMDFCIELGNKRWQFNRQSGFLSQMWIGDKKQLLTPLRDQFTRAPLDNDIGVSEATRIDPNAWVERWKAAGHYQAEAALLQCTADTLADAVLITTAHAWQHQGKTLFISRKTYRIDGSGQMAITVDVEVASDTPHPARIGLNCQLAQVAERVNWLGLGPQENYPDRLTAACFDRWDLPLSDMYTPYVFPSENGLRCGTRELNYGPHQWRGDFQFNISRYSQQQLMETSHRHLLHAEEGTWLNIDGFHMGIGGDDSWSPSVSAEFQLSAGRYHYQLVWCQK

Structure (SMILES): COc1cccc(N2CCN(c3ncnc4c3cnn4-c3ccc(C)cc3C)CC2)c1
- AC50 [1]: 4.65 µM (active)
- AC50 [2]: 6.38 µM (active)
- EC50 [3]: 16.8 µM (active)
- EC50 [4]: 3.78 µM (active)
- EC50 [5]: 11 µM (active)
- AC50 [6]: 37.2 µM (active)
- AC50 [7]: 17.5 µM (active)
- EC50 [8]: 3.17 µM (active)
- IC50 [9]: 3.73 µM (active)
- EC50 [10]: > 150 µM (inconclusive)
- EC50 [11]: 14.4 µM (active)
- AC50 [12]: 4.03 µM (active)

Structure (SMILES): NCCN1CCN(CCN)CC1
- IC50 [13]: > 83.4 µM (inactive)
- IC50 [14]: > 109 µM (inactive)

Structure (SMILES): Cc1cc(N/C=C/C(=O)c2cccs2)ccc1F
- EC50 [15]: > 67.6 µM (inactive)
- EC50 [16]: > 67.6 µM (inactive)

Structure (SMILES): N#C[C@H]1[C@H](c2ccc(-c3cccc(F)c3)cc2)[C@H](CO)N1C(=O)c1cccnc1
- AC50 [17]: > 39 µM (inactive)
- AC50 [18]: 76.8 µM (active)
- AC50 [19]: 1.33 µM (active)
- AC50 [20]: 0.641 µM (active)
- AC50 [21]: 1.16 µM (active)
- AC50 [22]: 0.69 µM (active)

Structure (SMILES): CCn1nnnc1SCC(=O)Nc1nnc(C(C)C)s1
- AC50 [23]: 7.36 µM (active)

Structure (SMILES): COc1ccc(N2C(=O)CC(Sc3nnc(-c4ccccc4)o3)C2=O)cc1 (centres undefined)
- AC50 [2]: 10.4 µM (active)
- IC50 [24]: > 66.6 µM (inactive)
- AC50 [7]: 44.9 µM (active)
- AC50 [25]: 19.6 µM (active)

Structure (SMILES): COCC(=O)Nc1ccc2c(c1)C(=O)N(C)C[C@H](OC)[C@H](C)CN(Cc1cc(F)ccc1F)[C@@H](C)CO2
- AC50 [18]: > 100 µM (inactive)
- AC50 [19]: 13.1 µM (active)
- AC50 [20]: 1.18 µM (active)
- AC50 [21]: 2.25 µM (active)
- AC50 [22]: 1.84 µM (active)

Structure (SMILES): COc1ccc(-c2nc3ccccn3c2Cl)cc1
- EC50 [26]: > 67.6 µM (inactive)
- IC50 [27]: > 67.6 µM (inactive)

Structure (SMILES): COc1ccc(-c2oc3cc(O)c(OC)c(O)c3c(=O)c2OC)cc1O [CENTAUREIDIN]
- AC50 [28]: 101 µM (active)
- IC50 [29]: > 67.5 µM (inactive)
- IC50 [30]: 35 µM (inactive)

Structure (SMILES): NCC[C@H]1CC[C@H](NS(=O)(=O)Cc2ccccc2)[C@@H](CO)O1
- AC50 [31]: > 52 µM (inactive)
- AC50 [32]: 40.7 µM (active)

Reference: ChEMBL document CHEMBL1201862, “PubChem BioAssay data set” (2004)
